# In patent publication US11161839B2, “2-quinolone derived inhibitors of BCL6” (Cancer Research Technology Limited, priority 2017, dated 2021):
# Where two headings read alike, the source gives them in different places.
# Experiments:
# [1] = target: human BCL6 BTB domain (Trx-6xHis-BCL6) (Homo sapiens (Human), UniProt P41182); test: HTRF in vitro assay (BCL6 BTB domain / BCOR-AF633 peptide); format: binding; conditions: for IC50: read-out: HTRF pIC50 (converted)
# [2] = target: BCL6-NCOR2(SMRT) corepressor protein-protein interaction (Homo sapiens (Human), UniProt P41182); test: NanoBRET cell assay in transfected HEK293T cells; format: cell-based
# [3] = further generated data (Table 1b), 1 nM Trx-6xHis-BCL6, 0.5 nM anti-6xHis-Terbium cryptate
# [4] = further generated data (Table 2b), HEK293T cells, 6 hr, read-out: NanoBRET cell pIC50 (converted)
"HTRF pIC50 [1, 3]","IC50 [2, 4] [nM]","IC50 [1, 3] [nM]","HTRF pIC50 ([1]; initially generated data (Table 1a), 10 nM Trx-6xHis-BCL6, 1 nM anti-6xHis-Terbium cryptate)",SMILES,IC50 [2] [nM]
6.21,6920,–,–,"CC(Nc1cc(=O)n(C)c2ccc(Nc3cc(N4CCC(F)(F)CC4)ncc3Cl)cc12)c1ncccn1 (stereo not drawn) [Example 15h, 6-((5-chloro-2-(4,4-difluoropiperidin-1-yl)pyridin-4-yl)amino)-1-methyl-4-((1-(pyrimidin-2-yl)ethyl)amino)quinolin-2(1H)-one]",–
6.28,4270,–,–,"CC(Nc1cc(=O)n(C)c2ccc(Nc3cc(N4C[C@@H](C)O[C@@H](C)C4)ncc3Cl)cc12)c1ncccn1 (stereo partly drawn) [Example 15e, 6-((5-chloro-2-((2S,6R)-2,6-dimethylmorpholino)pyridin-4-yl)amino)-1-methyl-4-((1-(pyrimidin-2-yl)ethyl)amino)quinolin-2(1H)-one]",–
6.18,4900,–,–,"CC(Nc1cc(=O)n(C)c2ccc(Nc3nc(N4CC(C)(C#N)C4)ncc3Cl)cc12)c1ncccn1 (stereo not drawn) [Example 17j, 1-(5-chloro-4-((1-methyl-2-oxo-4-((11-(pyrimidin-2-yl)ethyl)amino)-1,2-dihydroquinoline-6-yl)amino)pyrimidin-2-yl)-3-methylazetidine-3-carbonitrile]",–
6.47,7240,–,–,"CC(Nc1cc(=O)n(C)c2ccc(Nc3cc(N4CCC(C(=O)N(C)C)CC4)ncc3Cl)cc12)c1ncccn1 (stereo not drawn) [Example 15g, 1-(5-chloro-4-((1-methyl-2-oxo-4-((1-(pyrimidin-2-yl)ethyl)amino)-1,2-dihydroquinolin-6-yl)amino)pyridin-2-y1)-N,N-dimethylpiperidine-4-carboxamide]",–
7.46,479,–,–,"CC(Nc1cc(=O)n(C)c2ccc(Nc3ccnc(Cl)c3C#N)cc12)c1ncc(-c2cccnc2)cn1 (stereo not drawn) [Example 20, 2-chloro-4-((1-methyl-2-oxo-4-((1-(5-(pyridin-3-yl)pyrimidin-2-yl)ethyl)amino)-1,2-dihydroquinolin-6-yl)amino)nicotinonitrile]",–
6.58,2290,–,–,"C[C@@H](Nc1cc(=O)n(C)c2ccc(Nc3cc(-n4cc(CCO)cn4)ncc3Cl)cc12)C1CC1 [Example 15f, (R)-6-((5-chloro-2-(4-(2-hydroxyethyl)-1H-pyrazol-1-yl)pyridin-4-yl)amino)-4-((1-cyclopropylethyl)amino)-1-methylquinolin-2(1H)-one]",–
6.92,1230,–,–,"CC(Nc1cc(=O)n(C)c2ccc(Nc3ccnc(Cl)c3C#N)cc12)c1ncc(Br)cn1 (stereo not drawn) [Example 10j, 4-((4-((1-(5-bromopyrimidin-2-yl)ethyl)amino)-1-methyl-2-oxo-1,2-dihydroquinolin-6-yl)amino)-2-chloronicotinonitrile]",–
6.85,977,–,–,"CNC(=O)c1cc(Nc2ccc3c(c2)c(NC(C)(C)COC)cc(=O)n3C)c(C#N)c(Cl)n1 [Example 7d, 6-chloro-5-cyano-4-[[4-[(2-methoxy-1,1-dimethyl-ethyl)amino]-1-methyl-2-oxo-6-quinolyl]amino]-N-methyl-pyridine-2-carboxamide]",–
–,2340,191,–,"CC(Nc1nc(=O)n(C)c2ccc(Nc3nc(N4CCC(F)(F)CC4)ncc3Cl)cc12)c1ncccn1 (stereo not drawn) [Example 12a, 6-((5-Chloro-2-(4,4-difluoropiperidin-1-yl)pyrimidin-4-yl)amino)-1-methyl-4-((1-(pyrimidin-2-yl)ethyl)amino)quinazolin-2(1H)-one]",–
5.88,5370,–,6.15,"Cc1cc(C(C)Nc2cc(=O)n(C)c3ccc(Nc4ccnc(Cl)c4C#N)cc23)no1 (stereo not drawn) [Example 1m, 2-chloro-4-[[1-methyl-4-[1-(5-methylisoxazol-3-yl)ethylamino]-2-oxo-6-quinolyl]amino]pyridine-3-carbonitrile]",–
6.44,2340,–,–,"Cn1c(=O)cc(NC(c2ncccn2)C2CC2)c2cc(Nc3ccnc(Cl)c3C#N)ccc21 (stereo not drawn) [Example 10p, 2-chloro-4-((4-((cyclopropyl(pyrimidin-2-yl)methyl)amino)-1-methyl-2-oxo-1,2-dihydroquinolin-6-yl)amino)nicotinonitrile]",–
6.34,4370,–,–,"CC(Nc1cc(=O)n(C)c2ccc(Nc3ccnc(Cl)c3C#N)cc12)c1ccccn1 (stereo not drawn) [Example 11d, 2-chloro-4-((1-methyl-2-oxo-4-((1-(pyridin-2-yl)ethyl)amino)-1,2-dihydroquinolin-6-yl)amino)nicotinonitrile: formic acid (1:1)]",–
6.34,3470,–,–,"CC(Nc1cc(=O)n(C)c2ccc(Nc3nc(N4CCC(CC(=O)N(C)C)CC4)ncc3Cl)cc12)c1ncccn1 (stereo not drawn) [Example 17e, 2-(1-(5-chloro-4-((1-methyl-2-oxo-4-((1-(pyrimidin-2-yl)ethyl)amino)-1,2-dihydroquinolin-6-yl)amino)pyrimidin-2-yl)piperidin-4-yl)-N,N-dimethylacetamide:formic acid (1:1)]",–
6.50,2290,–,–,"CC(C)(Nc1cc(=O)n(CC2CCCCC2)c2ccc(Nc3ccnc(Cl)c3C#N)cc12)c1ncccn1 [Example 10o, 2-chloro-4-((1-(cyclohexylmethyl)-2-oxo-4-((2-(pyrimidin-2-yl)propan-2-yl)amino)-1,2-dihydroquinolin-6-yl)amino)nicotinonitrile]",–
6.53,4470,–,–,"C[C@@H](Nc1cc(=O)n(C)c2ncc(Nc3ccnc(Cl)c3C#N)cc12)C1CC1 [Example 24d, (R)-2-chloro-4-((5-((1-cyclopropylethyl)amino)-8-methyl-7-oxo-7,8-dihydro-1,8-naphthyridin-3-yl)amino)nicotinonitrile]",–
6.52,1290,–,–,"Cn1c(=O)cc(NC(C)(C)c2ccccn2)c2cc(Nc3ccnc(Cl)c3C#N)ccc21 [Example 11b, 2-chloro-4-((1-methyl-2-oxo-4-((2-(pyridin-2-yl)propan-2-yl)amino)-1,2-dihydroquinolin-6-yl)amino)nicotinonitrile:formic acid (1:1)]",–
–,3310,525,–,COc1cc(Nc2nc(N3CCC(C(=O)N(C)C)CC3)ncc2Cl)cc2c(NC(C)(C)c3ncccn3)cc(=O)n(C)c12 [Example 12c],–
6.82,1510,–,–,"CC(Nc1cc(=O)n(C)c2ccc(Nc3ccnc(Cl)c3C#N)cc12)c1ncc(N2C[C@H](C)C[C@H](C)C2)cn1 (stereo partly drawn) [Example 10k, 2-chloro-4-((4-((1-(5-((3R,5S)-3,5-dimethylpiperidin-1-yl)pyrimidin-2-yl)ethyl)amino)-1-methyl-2-oxo-1,2-dihydroquinolin-6-yl)amino)nicotinonitrile]",–
6.66,1700,–,–,"Cn1c(=O)cc(NC(C)(C)c2ncccn2)c2cc(Nc3cc(Cl)nc(Cl)c3Cl)ccc21 [Example 13, 1-methyl-4-((2-(pyrimidin-2-yl)propan-2-yl)amino)-6-((2,3,6-trichloropyridin-4-yl)amino)quinolin-2(1H)-one]",–
7.10,8910,–,–,CC(Nc1nc(=O)n(C)c2ccc(Nc3ccnc(Cl)c3C#N)cc12)c1ncccn1 (stereo not drawn) [Example 10h],–
6.25,9120,–,–,"COCC(C)(C)Nc1cc(=O)n(C)c2ccc(Nc3nc(N4CCC(C(=O)N(C)C)CC4)ncc3Cl)cc12 [Example 16d, 1-(5-chloro-4-((4-((1-methoxy-2-methylpropan-2-yl)amino)-1-methyl-2-oxo-1,2-dihydroquinolin-6-yl)amino)pyrimidin-2-yl)-N,N-dimethylpiperidine-4-carboxamide]",–
6.99,5250,–,–,"CC(Nc1cc(=O)n(C)c2ccc(Nc3cc(C(=O)N4CC(C(F)(F)F)C4)nc(Cl)c3C#N)cc12)c1ncc(C2CC2)cn1 (stereo not drawn) [Example 8f, 2-chloro-4-((4-((1-(5-cyclopropylpyrimidin-2-yl)ethyl)amino)-1-methyl-2-oxo-1,2-dihydroquinolin-6-yl)amino)-6-(3-(trifluoromethyl)azetidine-1-carbonyl)nicotinonitrile]",–
6.55,1290,–,–,"C[C@@H](Nc1cc(=O)n(C)c2ccc(Nc3ccnc(Cl)c3C#N)cc12)C1CC1 [Example 10n, (R)-2-chloro-4-((4-((1-cyclopropylethyl)amino)-1-methyl-2-oxo-1,2-dihydroquinolin-6-yl)amino)nicotinonitrile]",–
6.54,10000,–,–,"COCC(C)(C)Nc1cc(=O)n(C)c2ccc(Nc3nc(-n4nc(C)cc4C)ncc3Cl)cc12 [Example 14e, 6-((5-chloro-2-(3,5-dimethyl-1H-pyrazol-1-yl)pyrimidin-4-yl)amino)-4-((1-methoxy-2-methylpropan-2-yl)amino)-1-methylquinolin-2(1H)-one]",–

SMILES,"HTRF pIC50 [1, 3]","IC50 [2, 4] [nM]","IC50 [1, 3] [nM]","HTRF pIC50 ([1]; initially generated data (Table 1a), 10 nM Trx-6xHis-BCL6, 1 nM anti-6xHis-Terbium cryptate)",IC50 [2] [nM]
"Cn1c(=O)cc(NC(C)(C)c2ncc(C3CC3)cn2)c2cc(Nc3ccnc(Cl)c3C#N)ccc21 [Example 10a, 2-chloro-4-((4-((2-(5-cyclopropylpyrimidin-2-yl)propan-2-yl)amino)-1-methyl-2-oxo-1,2-dihydroquinolin-6-yl)amino)nicotinonitrile]",7.53,513,–,–,–
"CC(Nc1cc(=O)n(CC2CC2)c2ccc(Nc3ccnc(Cl)c3C#N)cc12)c1ncccn1 (stereo not drawn) [Example 11h, 2-chloro-4-((1-(cyclopropylmethyl)-2-oxo-4-((1-(pyrimidin-2-yl)ethyl)amino)-1,2-dihydroquinolin-6-yl)amino)nicotinonitrile]",6.65,2820,–,–,–
"CC(Nc1cc(=O)n(CC2CCC2)c2ccc(Nc3ccnc(Cl)c3C#N)cc12)c1ncccn1 (stereo not drawn) [Example 11i, 2-chloro-4((1-(cyclobutylmethyl)-2-oxo-4-((1-(pyrimidin-2-yl)ethyl)amino)-1,2-dihydroquinolin-6-yl)amino)nicotinonitrile]",6.64,2090,–,–,–
Cc1cnc(C(C)Nc2cc(=O)n(C)c3ccc(Nc4ccnc(Cl)c4C#N)cc23)nc1 (stereo not drawn) [Example 10f],7.12,–,–,–,1070
